Earlier results, collected in patent US20250382198A1, “ADSORBENT AND METHOD FOR REMOVING PER- AND/OR POLYFLUOROALKYL SUBSTANCES (PFAS) IN WATER MATRICES” (University of Central Florida Research Foundation, Inc., priority 2024, published 2025).

With `O=C(O)C(F)(F)C(F)(F)C(F)(F)C(F)(F)C(F)(F)C(F)(F)C(F)(F)F` [PFOA, Perfluorooctanoic acid] as the molecule, how does the “Log D” value read?
Its value is 1.58.

For `O=S(=O)(O)C(F)(F)C(F)(F)C(F)(F)C(F)(F)C(F)(F)C(F)(F)C(F)(F)C(F)(F)F` [PFOS, Perfluorooctanesulfonic acid], which “Log D” value is on record?
Its value is 3.05.

What does the source list for `O=C(O)C(F)(OC(F)(F)C(F)(F)C(F)(F)F)C(F)(F)F` (centres unmarked) [GenX, hexafluoropropylene oxide dimer acid]?
Log D: 0.47; pKa: 2.84

For `O=C(O)C(F)(F)C(F)(F)C(F)(F)F` [PFBA, Perfluorobutanoic acid], which “Log D” value is on record?
Its value is −1.22.
